According to patent US20220217975A1, “GREEN FORMULATION TO REDUCE VOLATILITY AND LEACHING OF PESTICIDES” (POLITECNICO DI TORINO, priority 2019, published 2022):
In brackets after ≈: the same amount, converted by molar mass. Read-outs that look alike come from different tables or passages of the source.

Columns and labels:
[1] = Volatility test of the active ingredient; format: physicochemical; settings: 200 mL deionized water, 92 mg active ingredient, stirred open at 300 rpm, over 4 days, FIG. 6
Procedure: The procedure involved the use of three solutions: • Solution A: formulation of the following patent suspended in 200 mL of deionized water; • Solution B: pure dicamba active ingredient, dissolved in 200 mL of deionized water; • Solution C: 200 mL of deionized water.
All the previous solutions were stirred without lids, caps or parafilm that would hinder the evaporation. The characterization took place by sampling the solutions every 24 hours and analysing them with a spectrophotometer. The withdrawn amount was replenished with deionized water.
Some specifications: • the clay suspended in solution A has an active ingredient content by weight of approximately 92 mg; • in order to make a comparison, and therefore to evaluate whether the formulation actually makes the dicamba less volatile, the amount by weight of the active ingredient inserted in solution B is identical to that adsorbed on the clay, that is 92 mg; • the weighing of the solutions, to evaluate the amount of evaporated substance, also includes the contribution of water. […]

[2] = literature; cited from earlier work
[3] = cited from earlier work
[4] = dicamba active ingredient; cited from earlier work

Structure (SMILES): COc1c(Cl)ccc(Cl)c1C(=O)O [dicamba, 3,6-dichloro-2-methoxybenzoic acid]
- herbicide loss by volatilization (in words) [1]: initial rapid volatilization and to a subsequent slow and progressive loss in mass
- half-life time, most frequently reported values [2]: lower than 20 days
- solubility in water ([3]; pH approximately 2 (no pH adjustment)): ~8 mg/mL (≈ 36.2 mM)
- solubility in water ([3]; pH values higher than 4.1): > 250 mg/mL
- vapour pressure [4]: 2.6·10^−8 atm
